{"source": "patent US7795281B2", "about": "“Optically active dihydropyridine derivative” (Daiichi Sankyo Company, Limited, priority 2002, dated 2010)", "key": {"L calcium channel": {"biological_target": "T1, L calcium channel (Sus scrofa, UniProt A0A8W4FNC0)", "T1 construct": "from tissue; host or cells: porcine myocardium (microsome fraction)", "T1 sequence (A0A8W4FNC0 1-2067)": "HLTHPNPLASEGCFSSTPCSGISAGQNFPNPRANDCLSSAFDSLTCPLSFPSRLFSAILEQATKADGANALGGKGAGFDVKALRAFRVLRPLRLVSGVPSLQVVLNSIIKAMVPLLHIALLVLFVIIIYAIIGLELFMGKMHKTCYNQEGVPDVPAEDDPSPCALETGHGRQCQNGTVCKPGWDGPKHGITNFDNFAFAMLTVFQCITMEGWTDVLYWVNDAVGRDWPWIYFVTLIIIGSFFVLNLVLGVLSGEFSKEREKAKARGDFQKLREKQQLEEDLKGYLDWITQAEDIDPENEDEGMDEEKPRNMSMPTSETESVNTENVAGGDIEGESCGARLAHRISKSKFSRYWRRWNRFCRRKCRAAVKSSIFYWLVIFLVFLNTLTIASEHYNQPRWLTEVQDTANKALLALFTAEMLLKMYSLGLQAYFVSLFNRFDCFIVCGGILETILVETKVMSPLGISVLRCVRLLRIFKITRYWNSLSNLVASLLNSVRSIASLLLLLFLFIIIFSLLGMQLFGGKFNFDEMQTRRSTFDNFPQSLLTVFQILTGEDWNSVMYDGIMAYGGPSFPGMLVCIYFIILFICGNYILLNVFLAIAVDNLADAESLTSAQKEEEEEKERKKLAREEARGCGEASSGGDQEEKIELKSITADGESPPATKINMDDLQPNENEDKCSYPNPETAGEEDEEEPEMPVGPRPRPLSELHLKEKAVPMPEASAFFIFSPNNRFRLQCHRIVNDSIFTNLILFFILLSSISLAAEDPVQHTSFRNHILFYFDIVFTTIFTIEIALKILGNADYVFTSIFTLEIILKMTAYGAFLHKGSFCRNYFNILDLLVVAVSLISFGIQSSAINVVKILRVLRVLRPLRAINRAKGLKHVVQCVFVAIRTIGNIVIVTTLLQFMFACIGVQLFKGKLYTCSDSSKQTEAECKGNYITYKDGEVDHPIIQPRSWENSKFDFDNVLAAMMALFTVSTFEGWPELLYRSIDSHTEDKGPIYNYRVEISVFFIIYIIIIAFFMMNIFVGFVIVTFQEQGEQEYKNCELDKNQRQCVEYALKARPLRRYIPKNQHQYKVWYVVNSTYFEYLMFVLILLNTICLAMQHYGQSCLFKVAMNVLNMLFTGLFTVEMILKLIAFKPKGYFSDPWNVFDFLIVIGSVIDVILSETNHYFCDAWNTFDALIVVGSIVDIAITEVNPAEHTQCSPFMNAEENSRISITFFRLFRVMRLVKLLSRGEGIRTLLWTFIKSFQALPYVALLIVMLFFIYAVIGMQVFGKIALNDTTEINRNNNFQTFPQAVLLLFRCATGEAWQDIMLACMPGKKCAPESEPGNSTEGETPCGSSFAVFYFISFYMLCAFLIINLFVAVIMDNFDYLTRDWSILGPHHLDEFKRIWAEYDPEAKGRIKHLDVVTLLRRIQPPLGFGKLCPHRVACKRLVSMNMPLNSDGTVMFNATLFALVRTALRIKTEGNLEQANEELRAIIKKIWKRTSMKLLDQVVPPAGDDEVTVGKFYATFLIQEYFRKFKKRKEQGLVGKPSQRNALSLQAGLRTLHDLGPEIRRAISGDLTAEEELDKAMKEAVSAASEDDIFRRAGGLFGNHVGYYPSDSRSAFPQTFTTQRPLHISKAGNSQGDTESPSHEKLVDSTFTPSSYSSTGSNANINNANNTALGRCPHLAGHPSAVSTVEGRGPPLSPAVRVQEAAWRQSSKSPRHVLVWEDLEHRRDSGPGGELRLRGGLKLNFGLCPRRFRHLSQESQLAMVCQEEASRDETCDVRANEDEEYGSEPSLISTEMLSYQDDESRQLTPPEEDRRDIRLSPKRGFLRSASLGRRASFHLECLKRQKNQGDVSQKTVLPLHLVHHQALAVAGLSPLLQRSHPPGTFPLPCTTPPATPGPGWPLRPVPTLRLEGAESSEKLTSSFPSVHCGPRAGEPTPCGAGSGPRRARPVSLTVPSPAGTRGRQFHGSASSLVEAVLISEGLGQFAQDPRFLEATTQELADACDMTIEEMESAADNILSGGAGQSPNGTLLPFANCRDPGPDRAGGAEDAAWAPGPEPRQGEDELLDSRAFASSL", "test": "Receptor binding experiment using porcine myocardial microsomes (3H-nitrendipine)", "settings": "for IC50 / Ki: porcine myocardial microsomes, average of two experiments; for IC50: 3H-nitrendipine 0.1 nM, read-out: IC50 (50% inhibitory concentration of specific binding); for Ki: Ki=IC50/(1+[L]/Kd), read-out: Ki (inhibition constant)", "protocol": "Receptor Binding Experiment Using Porcine Myocardial Microsomes\nPorcine myocardial microsomes were used for the source of the L calcium channel, while ^3H-nitrendipine was used for the ligand of the L calcium channel. The microsomes (0.2 mg protein/ml), ^3H-nitrendipine (0.1 nM) and test drug (racemic form, R form or S form) were allowed to react at room temperature for 30 minutes in HEPES buffer (50 mM, pH 7.4) followed by measurement of the ^3H-nitrendipine that bound to the microsome fraction with a liquid scintillation counter. The count in the presence of 10 μM non-labeled nitrendipine (amount of non-specific binding) was then subtracted to determine the amount of specific binding. The relationship between the concentration and inhibition rate of specific binding was approximated to a logistic curve for each test drug to determine IC50 (50% inhibitory concentration of specific binding). The Ki value (inhibition constant) for each test drug was then determined from the following formula using the Kd (dissociation constant) of nitrendipine as separately determined from a Scatchard plot: Ki=IC50/(1+[L]/Kd) (wherein [L] is the concentration of ^3H-nitrendipine)."}, "[1]": {"test_system": "male spontaneously hypertensive rats", "test": "Blood pressure lowering action in hypertensive rats", "format": "in vivo, rat", "protocol": "Blood Pressure Lowering Action in Hypertensive Rats\nCannulas for measuring blood pressure and administering drug were inserted into the inguinal artery and inguinal vein, respectively, of male spontaneously hypertensive rats age 25 to 29 weeks followed by intravenous administration of a compound under anesthesia and measurement of blood pressure over time for the course of 120 minutes.\nThe results of comparing the racemic form (20 μg/kg) and R form (10 μg/kg) are shown in Table 2, while the results of comparing the R form (3 μg/kg, 10 μg/kg) and the S form (1000 μg/kg) in a different series of experiments are shown in Table 3."}}}
{"compound": "CC1=C(C(=O)OC(C)C)C(c2cccc([N+](=O)[O-])c2)C(C(=O)OC2CN(C(c3ccccc3)c3ccccc3)C2)=C(N)N1", "note": "(racemic) [Racemic form, (±)-2-amino-1,4-dihydro-6-methyl-4-(3-nitrophenyl)-3,5-pyridinedicarboxylic acid 3-(1-diphenylmethylazetidin-3-yl) ester 5-isopropyl ester, reference compound]", "values": [{"measurement": "IC50", "setting": "L calcium channel", "result": 3.1, "unit": "nM"}, {"measurement": "Ki", "setting": "L calcium channel", "result": 2.1, "unit": "nM"}, {"measurement": "Change in blood pressure", "setting": "[1]; 20 μg/kg i.v., 0 minutes, Table 2, mean ± standard error", "result": "0 ± 0", "unit": "mmHg"}, {"measurement": "Change in blood pressure", "setting": "[1]; 20 μg/kg i.v., 10 minutes, Table 2, mean ± standard error", "result": "−21 ± 2", "unit": "mmHg"}, {"measurement": "Change in blood pressure", "setting": "[1]; 20 μg/kg i.v., 30 minutes, Table 2, mean ± standard error", "result": "−35 ± 4", "unit": "mmHg"}, {"measurement": "Change in blood pressure", "setting": "[1]; 20 μg/kg i.v., 60 minutes, Table 2, mean ± standard error", "result": "−42 ± 6", "unit": "mmHg"}, {"measurement": "Change in blood pressure", "setting": "[1]; 20 μg/kg i.v., 90 minutes, Table 2, mean ± standard error", "result": "−45 ± 6", "unit": "mmHg"}, {"measurement": "Change in blood pressure", "setting": "[1]; 20 μg/kg i.v., 120 minutes, Table 2, mean ± standard error", "result": "−48 ± 7", "unit": "mmHg"}]}
{"compound": "CC1=C(C(=O)OC(C)C)[C@@H](c2cccc([N+](=O)[O-])c2)C(C(=O)OC2CN(C(c3ccccc3)c3ccccc3)C2)=C(N)N1", "note": "[R form, (R)-2-amino-1,4-dihydro-6-methyl-4-(3-nitrophenyl)-3,5-pyridinedicarboxylic acid 3-(1-diphenylmethylazetidin-3-yl) ester 5-isopropyl ester]", "values": [{"measurement": "L calcium channel inhibitory activity, potency relative to S form", "setting": "L calcium channel; R form vs S form", "result": "roughly 500 times"}, {"measurement": "L calcium channel inhibitory activity, potency relative to racemic form", "setting": "L calcium channel; R form vs racemic form", "result": "more than twice as potent"}, {"measurement": "IC50", "setting": "L calcium channel", "result": 1.3, "unit": "nM"}, {"measurement": "Ki", "setting": "L calcium channel", "result": 0.88, "unit": "nM"}, {"measurement": "Change in blood pressure", "setting": "[1]; 3 μg/kg i.v., 0 minutes, Table 3 (different series of experiments), mean ± standard error", "result": "0 ± 0", "unit": "mmHg"}, {"measurement": "Change in blood pressure", "setting": "[1]; 3 μg/kg i.v., 10 minutes, Table 3 (different series of experiments), mean ± standard error", "result": "−3 ± 3", "unit": "mmHg"}, {"measurement": "Change in blood pressure", "setting": "[1]; 3 μg/kg i.v., 30 minutes, Table 3 (different series of experiments), mean ± standard error", "result": "−14 ± 3", "unit": "mmHg"}, {"measurement": "Change in blood pressure", "setting": "[1]; 3 μg/kg i.v., 60 minutes, Table 3 (different series of experiments), mean ± standard error", "result": "−28 ± 3", "unit": "mmHg"}, {"measurement": "Change in blood pressure", "setting": "[1]; 3 μg/kg i.v., 90 minutes, Table 3 (different series of experiments), mean ± standard error", "result": "−34 ± 5", "unit": "mmHg"}, {"measurement": "Change in blood pressure", "setting": "[1]; 3 μg/kg i.v., 120 minutes, Table 3 (different series of experiments), mean ± standard error", "result": "−34 ± 10", "unit": "mmHg"}, {"measurement": "Change in blood pressure", "setting": "[1]; 10 μg/kg i.v., 0 minutes, Table 2, mean ± standard error", "result": "0 ± 0", "unit": "mmHg"}, {"measurement": "Change in blood pressure", "setting": "[1]; 10 μg/kg i.v., 0 minutes, Table 3 (different series of experiments), mean ± standard error", "result": "0 ± 0", "unit": "mmHg"}, {"measurement": "Change in blood pressure", "setting": "[1]; 10 μg/kg i.v., 10 minutes, Table 2, mean ± standard error", "result": "−17 ± 4", "unit": "mmHg"}, {"measurement": "Change in blood pressure", "setting": "[1]; 10 μg/kg i.v., 10 minutes, Table 3 (different series of experiments), mean ± standard error", "result": "−23 ± 5", "unit": "mmHg"}, {"measurement": "Change in blood pressure", "setting": "[1]; 10 μg/kg i.v., 30 minutes, Table 2, mean ± standard error", "result": "−28 ± 5", "unit": "mmHg"}, {"measurement": "Change in blood pressure", "setting": "[1]; 10 μg/kg i.v., 30 minutes, Table 3 (different series of experiments), mean ± standard error", "result": "−36 ± 6", "unit": "mmHg"}, {"measurement": "Change in blood pressure", "setting": "[1]; 10 μg/kg i.v., 60 minutes, Table 2, mean ± standard error", "result": "−43 ± 7", "unit": "mmHg"}, {"measurement": "Change in blood pressure", "setting": "[1]; 10 μg/kg i.v., 60 minutes, Table 3 (different series of experiments), mean ± standard error", "result": "−49 ± 11", "unit": "mmHg"}, {"measurement": "Change in blood pressure", "setting": "[1]; 10 μg/kg i.v., 90 minutes, Table 2, mean ± standard error", "result": "−45 ± 7", "unit": "mmHg"}, {"measurement": "Change in blood pressure", "setting": "[1]; 10 μg/kg i.v., 90 minutes, Table 3 (different series of experiments), mean ± standard error", "result": "−54 ± 8", "unit": "mmHg"}, {"measurement": "Change in blood pressure", "setting": "[1]; 10 μg/kg i.v., 120 minutes, Table 2, mean ± standard error", "result": "−47 ± 6", "unit": "mmHg"}, {"measurement": "Change in blood pressure", "setting": "[1]; 10 μg/kg i.v., 120 minutes, Table 3 (different series of experiments), mean ± standard error", "result": "−61 ± 6", "unit": "mmHg"}, {"measurement": "Blood pressure lowering activity, potency relative to S form", "setting": "[1]; R form vs S form", "result": "roughly 300 times"}, {"measurement": "Blood pressure lowering activity, potency relative to racemic form", "setting": "[1]; R form vs racemic form", "result": "roughly twice as potent"}]}
{"compound": "CC1=C(C(=O)OC(C)C)[C@H](c2cccc([N+](=O)[O-])c2)C(C(=O)OC2CN(C(c3ccccc3)c3ccccc3)C2)=C(N)N1", "note": "[S form, (S)-2-amino-1,4-dihydro-6-methyl-4-(3-nitrophenyl)-3,5-pyridinedicarboxylic acid 3-(1-diphenylmethylazetidin-3-yl) ester 5-isopropyl ester]", "values": [{"measurement": "IC50", "setting": "L calcium channel", "result": 700, "unit": "nM"}, {"measurement": "Ki", "setting": "L calcium channel", "result": 460, "unit": "nM"}, {"measurement": "Change in blood pressure", "setting": "[1]; 1000 μg/kg i.v., 0 minutes, Table 3 (different series of experiments), mean ± standard error", "result": "0 ± 0", "unit": "mmHg"}, {"measurement": "Change in blood pressure", "setting": "[1]; 1000 μg/kg i.v., 10 minutes, Table 3 (different series of experiments), mean ± standard error", "result": "−5 ± 1", "unit": "mmHg"}, {"measurement": "Change in blood pressure", "setting": "[1]; 1000 μg/kg i.v., 30 minutes, Table 3 (different series of experiments), mean ± standard error", "result": "−18 ± 6", "unit": "mmHg"}, {"measurement": "Change in blood pressure", "setting": "[1]; 1000 μg/kg i.v., 60 minutes, Table 3 (different series of experiments), mean ± standard error", "result": "−29 ± 10", "unit": "mmHg"}, {"measurement": "Change in blood pressure", "setting": "[1]; 1000 μg/kg i.v., 90 minutes, Table 3 (different series of experiments), mean ± standard error", "result": "−36 ± 7", "unit": "mmHg"}, {"measurement": "Change in blood pressure", "setting": "[1]; 1000 μg/kg i.v., 120 minutes, Table 3 (different series of experiments), mean ± standard error", "result": "−35 ± 4", "unit": "mmHg"}]}
